In patent publication US6573045B1, “Methods and kits for discovery of RNA-binding compounds” (Ribotargets, Ltd., priority 1998, dated 2003) one finds Kd data, which are given here for two substances.

Several values for one entry are separate records, joined by “and”; a condition that tells them apart may be missing. Equal entries are not always repeated. Ends that are not written are not given here. * marks the point of attachment. TAMRA = tetramethylrhodamine (fluorescent label); DABCYL = CN(C)c1ccc(/N=N/c2ccc(C(=O)*)cc2)cc1

For experiment [1], the target named is TAR bulge RNA. The experiment can be described thus: Dabcyl-peptide binding to Fam-labelled RNA (quenching), TAR. The note with it: 110 mM KCl. Set-up: species or system HIV. The source says:
(§1) A representative subset comprising 40 peptide sequences from the total of 243 possible sequences was synthesised and is shown in Table 6. The peptides from the library are: No. 3 (SEQ ID NO:11), 4 (SEQ ID NO:12), 5 (SEQ ID NO:13), 6 (SEQ ID NO:14), 7 (SEQ ID NO:15), 8 (SEQ ID NO:16), 9 (SEQ ID NO:17), 10 (SEQ ID NO:18), 11 (SEQ ID NO:19), 12 (SEQ ID NO:20), 13 (SEQ ID NO:21), 14 (SEQ ID NO:22), 15 (SEQ ID NO:23), 16 (SEQ ID NO:24), 17 (SEQ ID NO:25), 18 (SEQ ID NO:26), 19 (SEQ ID NO:27), 20 (SEQ ID NO:28), 21 (SEQ ID NO:29), 22 (SEQ ID NO:30), 23 (SEQ ID NO:31), 24 (SEQ ID NO:32), 25 (SEQ ID NO:33), 26 (SEQ ID NO:34), 27 (SEQ ID NO:35), 28 (SEQ ID NO:36), 29 (SEQ ID NO:37), 30 (SEQ ID NO:38), 31 (SEQ ID NO:39), 32 (SEQ ID NO:40), 33 (SEQ ID NO:41), 34 (SEQ ID NO:42), 35 (SEQ ID NO:43), 36 (SEQ ID NO:44), 37 (SEQ ID NO:45), 38 (SEQ ID NO:46), 39 (SEQ ID NO:47), 40 (SEQ ID NO:48), 41 (SEQ ID NO:49), 42 (SEQ ID NO:50). These peptides were assayed for their ability to bind to range of RNA sequences carrying fluorescein attached to the 5′ end, as shown in FIG. 25.
(§2) FIG. 26. presents binding data for the peptide sequence 5 (KKQKR) (SEQ ID NO: 13) and the 4 RNA sequences. Reactions (100 μl) containing Fam-labelled RNA (10 nM) were mixed with increasing concentrations of Dabcyl-labelled ADP-1 peptide (up to 250 nM) in 50 mM Tris/Cl, pH7.4, 20 mM or 110 mM KCl (as indicated), 5 μg/ml BSA, 0.01% Triton X-100, 1% DMSO. Fluorescence (excitation 490 nm/emission at 535 nm) was determined using a Victor plate reader.
(§3) Dissociation constants were determined by fitting a binding isotherm (1-site-binding) to the data using the equation:
(§4) Y=((Fmax−Fmin)−((Fmax−Fmin)*X/(Kd+X)))+Fmin
(§5) where Fmax is fluorescence in the absence of quencher, Fmin is fluorescence at saturation, and X is peptide concentration.

Experiment [2] has as its target GTPase-LHL RNA. The experiment is described as follows: Dabcyl-peptide binding to Fam-labelled RNA (quenching), GTPase LHL. The note with it: GTPase-LHL, 110 mM KCl.
Text: as §1, §2, §3, §4, §5

In experiment [3] the target is RRE RNA. The experiment is described as follows: Dabcyl-peptide binding to Fam-labelled RNA (quenching), RRE. Set-up: species or system HIV. The note with it: RRE, 110 mM KCl.
Text: as §1, §2, §3, §4, §5

Experiment [4] deals with ss-19mer RNA. The experiment is described as follows: Dabcyl-peptide binding to Fam-labelled RNA (quenching), single stranded RNA. The settings on record: ss-19mer, 110 mM KCl.
Text: as §1, §2, §3, §4, §5

Experiment [5] addresses FAM-TAR RNA. The experiment can be described thus: Quenching of FAM-TAR RNA by DABCYL-labelled ADP-1. Format: binding, HIV. The note with it: 20 nM FAM-TAR, FIG. 19. Here is the method:
It is also possible to place a fluorescent group on the RNA target and a quenching group on the reporter molecule. […] The DABCYL-ADP-1 was pre-treated in the presence of 1% TFA at room temperature for 5 minutes prior to dilution into binding buffer (0.01% Triton X-100, 5 μg/ml BSA, 1% DMSO, 50 mM Tris-HCl pH 7.6, 20 mM KCl) and incubated on ice prior to complex formation.
Reactions were equilibrated at room temperature for 15 minutes prior to analysis in the Wallac Victor2 plate reader. The reactions were excited at 485 nm and fluorescence emission recorded at 535 nm. The fluorescence emission signal of the 20 nM FAM-TAR is progressively quenched after addition of increasing amounts of DABCYL-ADP-1 peptide. The experimental data shown in FIG. 19 was analysed in GraphPad PRISMTM using a non linear regression fit for single site binding.

In experiment [6] the target is DABCYL-RRE RNA. The experiment can be described thus: Quenching of TAMRA-labelled Rev peptide by DABCYL-RRE RNA. Type of experiment: binding, HIV. The settings on record: 20 nM TAMRA-Rev, increasing DABCYL-RRE, FIG. 21. Here is the method:
(§6) In the experiment shown in FIG. 21, 20 nM TAMRA-Rev was incubated with increasing concentrations of DABCYL-RRE. The TAMRA-Rev was pre-treated in the presence of 1% TFA at room temperature for 5 minutes prior to dilution in to storage buffer (0.01% Triton X-100, 5 μg/ml BSA, 1% DMSO, 50 mM Tris-HCl pH 8, 50 mM KCl) and incubated on ice prior to complex formation. Reactions were equilibrated at room temperature for 15 minutes prior to analysis in the Wallac Victor2 plate reader. The reactions were excited at 544 nm and fluorescence emission recorded at 570 nm. The fluorescence emission signal of the 20 nM TAMRA-Rev alone was subtracted from each signal obtained in the presence of increasing amounts of DABCYL-RRE and plotted as a function of DABCYL-RRE concentration (FIG. 21) in GraphPad PRISMTM using a non linear regression fit for single site binding.

For experiment [7], the target named is DABCYL-TAR RNA. The experiment is described as follows: Quenching of TAMRA-labelled Rev peptide by DABCYL-TAR RNA. The note with it: 20 nM TAMRA-Rev, increasing DABCYL-TAR, FIG. 22. Format: binding, HIV. On the procedure: as §6, with “20” for “In the experiment shown in FIG. 21, 20”, “DABCYL-TAR.” for “DABCYL-RRE.”, “into” for “in to”, “DABCYL-TAR” for “DABCYL-RRE”, “22)” for “21)”

What is called Kd is the constant that tells how readily two partners part at equilibrium. Low values mean higher affinity, high ones lower affinity. For “DABCYL-Phe-Thr-Thr-Lys-Ala-Leu-Gly-Ile-Ser-Tyr-Gly-Arg-Lys-Lys-Arg-Arg-Gln-Arg-Arg-Arg-Pro-Pro-Gln-Gly-Ser-Gln-Thr-His-Gln-Val-Ser-Leu-Ser-Lys-Gln ({DABCYL}-FTTKALGISYGRKKRRQRRRPPQGSQTHQVSLSKQ) [DABCYL-ADP-1]”, the dissociation constant Kd is 35 nM and 41 nM in experiment [1]; 131 nM in experiment [2]; 39 nM in experiment [3]; 511 nM in experiment [4]; 33 nM in experiment [5].
“TAMRA-Asp-Thr-Arg-Gln-Ala-Arg-Arg-Asn-Arg-Arg-Arg-Arg-Trp-Arg-Glu Arg-Gln-Arg ({TAMRA}-DTRQARRNRRRRWRERQR) [TAMRA-Rev]”: the Kd in experiment [6] amounted to 137 ± 23 nM; in experiment [7] it was 11000 nM.
